Experimental data: US20240228572A1 (i2o Therapeutics, Inc., priority 2020, published 2024)
pEC50: −log10 of the molar value. *1 amine or outer side, *2 acyl side, *3 side chain or, on linkers, in order; H or OH if unused. Where a SMILES comes first, the peptide text is derived from it. Bridges are numbered along the chain shown (N, C = ends). Side-chain parts run from the residue outwards. [ ]: non-standard residue; d: D form. The star is where a group is joined. C20 diacid = O=C(O)CCCCCCCCCCCCCCCCCCC(=O)*; γGlu = O=C(O)[C@H](CCC(=O)[*:2])N[*:1]; AEEA = NCCOCCOCC(=O)O; Aib = CC(C)(N)C(=O)O

The compounds below were run against T1, human Glucagon receptor (GCGR) (Homo sapiens, UniProt P47871) (assay: cAMP accumulation assay, CHO-K1 cells expressing human GCGR). Conditions: mean pEC50, Table 10.
T1 construct: A cDNA fragment encoding the full-length open reading frame of the human GCGR; expressed in transfected cells; host or cells: CHO-K1, pcDNA3.1+, Lipofectamine 2000
T1 sequence (P47871 26-477): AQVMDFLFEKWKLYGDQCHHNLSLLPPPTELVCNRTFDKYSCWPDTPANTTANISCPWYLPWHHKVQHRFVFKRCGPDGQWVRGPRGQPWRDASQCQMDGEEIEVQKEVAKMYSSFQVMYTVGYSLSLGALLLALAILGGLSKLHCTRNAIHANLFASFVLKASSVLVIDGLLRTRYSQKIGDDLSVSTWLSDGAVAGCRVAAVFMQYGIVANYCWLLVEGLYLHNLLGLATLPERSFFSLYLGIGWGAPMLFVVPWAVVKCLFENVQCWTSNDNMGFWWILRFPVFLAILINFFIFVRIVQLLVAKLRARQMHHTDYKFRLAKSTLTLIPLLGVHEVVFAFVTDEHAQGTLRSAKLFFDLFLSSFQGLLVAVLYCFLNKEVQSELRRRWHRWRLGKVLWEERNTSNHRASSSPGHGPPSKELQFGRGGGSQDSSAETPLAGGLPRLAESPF
Type: cell-based
Source text: (§1) In the presence of the non-specific cAMP/cGMP phosphodiesterase inhibitor, 3-isobutyl-1-methylxanthine (IBMX), accumulating cAMP can be measured in vitro using common detection methods. Thus, it is possible to estimate an in vitro potency (pEC50) for peptides activating each of these receptors using fit dose-response curves for cAMP accumulation.
A cDNA fragment encoding the full-length open reading frame of the cynomolgus monkey GLP-1R (Genebank accession #XM_028847603 was cloned into pcDNA3.1+ for expression in CHO-K1 cells. A cDNA fragment encoding the full-length open reading frame of the human GCGR (Genebank accession #NM_000160 was cloned into pcDNA3.1+ for expression in CHO-K1 cells. A cDNA fragment encoding the full-length open reading frame of the rat GCGR (Genebank accession #NM_12091 was cloned into pcDNA3.1+ for expression in CHO-K1 cells. A cDNA fragment encoding the full-length open reading frame of the cynomolgus monkey GCGR (Genebank accession #XM_005585255 was cloned into pcDNA3.1+ for expression in CHO-K1 cells.
(§2) On day 1, CHO-K1 cells were plated at 1.5 million cells per T75 flask in 90% F12-K media supplemented with 10% FBS. On day 3 cells were transfected with 40 mcg of each expression plasmid using Lipofectamine 2000 transfection reagent. On day 5, cells were dispensed at 1000 cells per well in white 384-well OptiPlates in 5 mcL of assay buffer consisting of 1×HBSS, 5 mM HEPES, 0.5 mM IBMX, and 0.1% casein.
(§3) Peptides were serially diluted 4-fold in assay buffer to final concentrations ranging from 1×10^−9 M to 9.5×10^−16 M. Two assay controls consisting of 50 mcM forskolin (cAMP system maximum) or assay buffer only (cAMP system minimum) were also prepared. Five microliters of each peptide-concentration, or assay control, was added to triplicate wells and incubated for thirty minutes at room temperature. During this incubation step a 4× europium labelled cAMP tracer solution and a 4× Ulight®-anti-cAMP solution (consisting of an anti-cAMP monoclonal antibody labelled with Ulight™ dye) was prepared according to the manufacturer's protocol (PerkinElmer LANCE Ultra cAMP kit). Following this incubation, 5 mcL europium labelled cAMP and 5 mcL Ulight anti-cAMP antibody was added to each well. The plate was covered to prevent evaporation and incubated for 60 minutes at room temperature in the dark. Plates were read on an Envision fluorescent plate reader (PerkinElmer).
(§4) Test values were first normalized to the system maximum and system minimum averaged values in Excel using the formula: (test value−system min average)/(system max average -system min average)*100. Normalized test values represent a baseline corrected percentage of the system maximum cAMP response induced by forskolin. Data from up to 3 replicate tests were analyzed for each peptide. Potency values were estimated using GraphPad Prism software (v7.04) by fitting data to a 4-parameter logistic curve model: Y=Bottom+(Top−Bottom)/(1+10^((LogEC50−X))). The Hill slope was constrained to 1.0. EC50 values were converted to pEC50 values using the formula: pEC50=−Log (EC50).

| SMILES | pEC50 |
| --- | --- |
| CC(C)C[C@H](NC(=O)[C@H](Cc1ccc(O)cc1)NC(=O)[C@H](CCCCN)NC(=O)[C@H](CO)NC(=O)[C@H](Cc1ccc(O)cc1)NC(=O)[C@H](CC(=O)O)NC(=O)[C@H](CO)NC(=O)[C@@H](NC(=O)[C@H](Cc1ccccc1)NC(=O)[C@@H](NC(=O)CNC(=O)[C@H](Cc1c[nH]cn1)NC(=O)[C@H](CO)NC(=O)[C@@H](N)Cc1ccc(O)cc1)[C@@H](C)O)[C@@H](C)O)C(=O)N[C@@H](CCCCNC(=O)CC[C@H](NC(=O)CC[C@H](NC(=O)COCCOCCNC(=O)CCCCCCCCCCCCCCCCCCC(=O)O)C(=O)O)C(=O)O)C(=O)NC(C)(C)C(=O)N[C@@H](CCCCN)C(=O)N[C@@H](Cc1ccc(O)cc1)C(=O)N[C@@H](C)C(=O)N[C@@H](CCC(N)=O)C(=O)N[C@@H](CCC(=O)O)C(=O)N[C@@H](Cc1ccccc1)C(=O)N[C@H](C(=O)NC(C)(C)C(=O)N[C@@H](Cc1c[nH]c2ccccc12)C(=O)N[C@@H](CC(C)C)C(=O)N[C@@H](CCC(=O)O)C(=O)N[C@@H](CC(=O)O)C(=O)N[C@@H](CCC(=O)O)C(=O)N1CCC[C@H]1C(=O)N[C@@H](CO)C(=O)N[C@@H](CO)C(=O)NCC(=O)N[C@@H](C)C(=O)N1CCC[C@H]1C(=O)N1CCC[C@H]1C(=O)N1CCC[C@H]1C(=O)N[C@@H](CO)C(=O)O)C(C)C [Compound A1] (H-YSHGTFTSDYSKYLK([γGlu-γGlu-AEEA-C20 diacid])[Aib]KYAQEFV[Aib]WLEDEPSSGAPPPS-OH) | 11.50 |
| CC(C)C[C@H](NC(=O)[C@H](Cc1ccc(O)cc1)NC(=O)[C@H](CCCCN)NC(=O)[C@H](CO)NC(=O)[C@H](Cc1ccc(O)cc1)NC(=O)[C@H](CC(=O)O)NC(=O)[C@H](CO)NC(=O)[C@@H](NC(=O)[C@H](Cc1ccccc1)NC(=O)[C@@H](NC(=O)CNC(=O)[C@H](Cc1c[nH]cn1)NC(=O)[C@H](CO)NC(=O)[C@@H](N)Cc1ccc(O)cc1)[C@@H](C)O)[C@@H](C)O)C(=O)N[C@@H](CC(=O)O)C(=O)NC(C)(C)C(=O)N[C@@H](CCCCN)C(=O)N[C@@H](CCCCNC(=O)CC[C@H](NC(=O)CC[C@H](NC(=O)COCCOCCNC(=O)CCCCCCCCCCCCCCCCCCC(=O)O)C(=O)O)C(=O)O)C(=O)N[C@@H](C)C(=O)N[C@@H](CCC(N)=O)C(=O)N[C@@H](CCC(=O)O)C(=O)N[C@@H](Cc1ccccc1)C(=O)N[C@H](C(=O)NC(C)(C)C(=O)N[C@@H](Cc1c[nH]c2ccccc12)C(=O)N[C@@H](CC(C)C)C(=O)N[C@@H](CCC(=O)O)C(=O)N[C@@H](CC(=O)O)C(=O)N[C@@H](CCC(=O)O)C(=O)N1CCC[C@H]1C(=O)N[C@@H](CO)C(=O)N[C@@H](CO)C(=O)NCC(=O)N[C@@H](C)C(=O)N1CCC[C@H]1C(=O)N1CCC[C@H]1C(=O)N1CCC[C@H]1C(=O)N[C@@H](CO)C(=O)O)C(C)C [Compound A4] (H-YSHGTFTSDYSKYLD[Aib]KK([γGlu-γGlu-AEEA-C20 diacid])AQEFV[Aib]WLEDEPSSGAPPPS-OH; N-terminus assumed) | 11.70 |
| CC(C)C[C@H](NC(=O)[C@H](Cc1ccc(O)cc1)NC(=O)[C@H](CCCCN)NC(=O)[C@H](CO)NC(=O)[C@H](Cc1ccc(O)cc1)NC(=O)[C@H](CC(=O)O)NC(=O)[C@H](CO)NC(=O)[C@@H](NC(=O)[C@H](Cc1ccccc1)NC(=O)[C@@H](NC(=O)CNC(=O)[C@H](Cc1c[nH]cn1)NC(=O)[C@H](CO)NC(=O)[C@@H](N)Cc1ccc(O)cc1)[C@@H](C)O)[C@@H](C)O)C(=O)N[C@@H](CC(=O)O)C(=O)NC(C)(C)C(=O)N[C@@H](CCCCN)C(=O)N[C@@H](Cc1ccc(O)cc1)C(=O)N[C@@H](C)C(=O)N[C@@H](CCCCNC(=O)CC[C@H](NC(=O)CC[C@H](NC(=O)COCCOCCNC(=O)CCCCCCCCCCCCCCCCCCC(=O)O)C(=O)O)C(=O)O)C(=O)N[C@@H](CCC(=O)O)C(=O)N[C@@H](Cc1ccccc1)C(=O)N[C@H](C(=O)NC(C)(C)C(=O)N[C@@H](Cc1c[nH]c2ccccc12)C(=O)N[C@@H](CC(C)C)C(=O)N[C@@H](CCC(=O)O)C(=O)N[C@@H](CC(=O)O)C(=O)N[C@@H](CCC(=O)O)C(=O)N1CCC[C@H]1C(=O)N[C@@H](CO)C(=O)N[C@@H](CO)C(=O)NCC(=O)N[C@@H](C)C(=O)N1CCC[C@H]1C(=O)N1CCC[C@H]1C(=O)N1CCC[C@H]1C(=O)N[C@@H](CO)C(=O)O)C(C)C [Compound A5] (H-YSHGTFTSDYSKYLD[Aib]KYAK([γGlu-γGlu-AEEA-C20 diacid])EFV[Aib]WLEDEPSSGAPPPS-OH; N-terminus assumed) | 11.60 |
| CC(C)C[C@H](NC(=O)[C@H](Cc1ccc(O)cc1)NC(=O)[C@H](CCCCN)NC(=O)[C@H](CO)NC(=O)[C@H](Cc1ccc(O)cc1)NC(=O)[C@H](CC(=O)O)NC(=O)[C@H](CO)NC(=O)[C@@H](NC(=O)[C@H](Cc1ccccc1)NC(=O)[C@@H](NC(=O)CNC(=O)[C@H](Cc1c[nH]cn1)NC(=O)[C@H](CO)NC(=O)[C@@H](N)Cc1ccc(O)cc1)[C@@H](C)O)[C@@H](C)O)C(=O)N[C@@H](CC(=O)O)C(=O)N[C@@H](CCCCNC(=O)CC[C@H](NC(=O)CC[C@H](NC(=O)COCCOCCNC(=O)CCCCCCCCCCCCCCCCCCC(=O)O)C(=O)O)C(=O)O)C(=O)N[C@@H](CCCCN)C(=O)N[C@@H](Cc1ccc(O)cc1)C(=O)N[C@@H](C)C(=O)N[C@@H](CCC(N)=O)C(=O)N[C@@H](CCC(=O)O)C(=O)N[C@@H](Cc1ccccc1)C(=O)NC(C)(C)C(=O)N[C@@H](CCC(N)=O)C(=O)N[C@@H](Cc1c[nH]c2ccccc12)C(=O)N[C@@H](CC(C)C)C(=O)N[C@@H](CCC(=O)O)C(=O)N[C@@H](CC(=O)O)C(=O)N[C@@H](CCC(=O)O)C(=O)N1CCC[C@H]1C(=O)N[C@@H](CO)C(=O)N[C@@H](CO)C(=O)NCC(=O)N[C@@H](C)C(=O)N1CCC[C@H]1C(=O)N1CCC[C@H]1C(=O)N1CCC[C@H]1C(=O)N[C@@H](CO)C(=O)O [Compound A7] (H-YSHGTFTSDYSKYLDK([γGlu-γGlu-AEEA-C20 diacid])KYAQEF[Aib]QWLEDEPSSGAPPPS-OH; N-terminus assumed) | 10.70 |

What follows are compounds tested against T2, human GLP-1 receptor (GLP-1R) (Homo sapiens, UniProt P43220) (assay: cAMP accumulation assay, CHO-K1 cells stably expressing human GLP-1R). Conditions: cAMP accumulation, mean pEC50, Table 10.
T2 construct: expressed in transfected cells
T2 sequence (P43220 24-463): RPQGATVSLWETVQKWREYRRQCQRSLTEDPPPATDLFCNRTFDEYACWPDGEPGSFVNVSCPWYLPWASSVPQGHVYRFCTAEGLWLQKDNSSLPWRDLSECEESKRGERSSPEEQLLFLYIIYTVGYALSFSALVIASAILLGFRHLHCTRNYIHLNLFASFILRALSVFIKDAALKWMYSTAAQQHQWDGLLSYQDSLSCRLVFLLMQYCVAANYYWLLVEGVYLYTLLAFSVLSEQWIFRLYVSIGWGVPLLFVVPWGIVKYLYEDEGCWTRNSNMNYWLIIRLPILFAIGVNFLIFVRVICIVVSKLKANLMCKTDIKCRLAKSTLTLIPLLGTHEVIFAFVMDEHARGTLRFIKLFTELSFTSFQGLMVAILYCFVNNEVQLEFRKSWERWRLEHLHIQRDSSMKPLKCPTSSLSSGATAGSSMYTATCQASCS
Type: cell-based
Procedure: as §1
CHO-K1 cells stably expressing human GLP-1R (Genebank accession #NM_002062) were grown in 90% F12-K media supplemented with 10% FBS and 250 μg/ml G418.
as §2, §3, §4

| SMILES | pEC50 |
| --- | --- |
| CC(C)C[C@H](NC(=O)[C@H](Cc1ccc(O)cc1)NC(=O)[C@H](CCCCN)NC(=O)[C@H](CO)NC(=O)[C@H](Cc1ccc(O)cc1)NC(=O)[C@H](CC(=O)O)NC(=O)[C@H](CO)NC(=O)[C@@H](NC(=O)[C@H](Cc1ccccc1)NC(=O)[C@@H](NC(=O)CNC(=O)[C@H](Cc1c[nH]cn1)NC(=O)[C@H](CO)NC(=O)[C@@H](N)Cc1ccc(O)cc1)[C@@H](C)O)[C@@H](C)O)C(=O)N[C@@H](CC(=O)O)C(=O)N[C@@H](CCCCNC(=O)CC[C@H](NC(=O)CC[C@H](NC(=O)COCCOCCNC(=O)CCCCCCCCCCCCCCCCCCC(=O)O)C(=O)O)C(=O)O)C(=O)N[C@@H](CCCCN)C(=O)N[C@@H](Cc1ccc(O)cc1)C(=O)N[C@@H](C)C(=O)N[C@@H](CCC(N)=O)C(=O)N[C@@H](CCC(=O)O)C(=O)N[C@@H](Cc1ccccc1)C(=O)NC(C)(C)C(=O)N[C@@H](CCC(N)=O)C(=O)N[C@@H](Cc1c[nH]c2ccccc12)C(=O)N[C@@H](CC(C)C)C(=O)N[C@@H](CCC(=O)O)C(=O)N[C@@H](CC(=O)O)C(=O)N[C@@H](CCC(=O)O)C(=O)N1CCC[C@H]1C(=O)N[C@@H](CO)C(=O)N[C@@H](CO)C(=O)NCC(=O)N[C@@H](C)C(=O)N1CCC[C@H]1C(=O)N1CCC[C@H]1C(=O)N1CCC[C@H]1C(=O)N[C@@H](CO)C(=O)O [Compound A7] (H-YSHGTFTSDYSKYLDK([γGlu-γGlu-AEEA-C20 diacid])KYAQEF[Aib]QWLEDEPSSGAPPPS-OH; N-terminus assumed) | < 9.00 |
| CC(C)C[C@@H]1NC(=O)[C@H](Cc2c[nH]c3ccccc23)NC(=O)[C@@H](NC(=O)[C@@H](NC(=O)[C@H](Cc2ccccc2)NC(=O)[C@H](CCCCNC(=O)CC[C@H](NC(=O)CC[C@H](NC(=O)COCCOCCNC(=O)CCCCCCCCCCCCCCCCCCC(=O)O)C(=O)O)C(=O)O)NC(=O)[C@H](CCC(N)=O)NC(=O)[C@H](C)NC(=O)[C@H](Cc2ccc(O)cc2)NC(=O)[C@H](CCCCN)NC(=O)C(C)(C)NC(=O)[C@H](CC(=O)O)NC(=O)[C@H](CC(C)C)NC(=O)[C@H](Cc2ccc(O)cc2)NC(=O)[C@H](CCCCN)NC(=O)[C@H](CO)NC(=O)[C@H](Cc2ccc(O)cc2)NC(=O)[C@H](CC(=O)O)NC(=O)[C@H](CO)NC(=O)[C@@H](NC(=O)[C@H](Cc2ccccc2)NC(=O)[C@@H](NC(=O)CNC(=O)[C@H](Cc2c[nH]cn2)NC(=O)[C@H](CO)NC(=O)[C@@H](N)Cc2ccc(O)cc2)[C@@H](C)O)[C@@H](C)O)C(C)C)CCCCNC(=O)C[C@@H](C(=O)N[C@@H](CCC(=O)O)C(=O)N2CCC[C@H]2C(=O)N[C@@H](CO)C(=O)N[C@@H](CO)C(=O)NCC(=O)N[C@@H](C)C(=O)N2CCC[C@H]2C(=O)N2CCC[C@H]2C(=O)N2CCC[C@H]2C(=O)N[C@@H](CO)C(=O)O)NC(=O)[C@H](CCC(=O)O)NC1=O [Compound A30] (H-YSHGTFTSDYSKYLD[Aib]KYAQK([γGlu-γGlu-AEEA-C20 diacid])FVKWLEDEPSSGAPPPS-OH; lactam 24-28) | < 9.00 |
